Experimental data: US6339078B1, “Methods of prevention and treatment of ischemic damage” (University of Florida Research Foundation, Inc., priority 1999, dated 2002)
“Also recorded” adds a separate entry of the source.

Tests used:
[1] = tested on: ovariectomized rats, ischemia induced by middle cerebral artery occlusion (MCAO); assay: Ischemic area in brain slices after MCAO, estrogen pretreatment; format: in vivo, rat; conditions: for reduction of ischemic area vs sham: Silastic tube 24 h prior to MCAO, sacrifice 24 h after MCAO
[2] = tested on: ovariectomized rats, ischemia induced by middle cerebral artery occlusion (MCAO); assay: Ischemic area in brain slices after MCAO, estrogen post-treatment at 40 or 90 minutes; format: in vivo, rat; conditions: administered 90 minutes after MCAO
[3] = tested on: ovariectomized rats, ischemia induced by middle cerebral artery occlusion (MCAO); assay: Ischemic lesion volume (TTC) after MCAO, post-treatment at 0.5-4 hours; format: in vivo, rat; conditions: iv 100 μg/kg HPCD-complexed plus Silastic pellet at 0.5, 1, 2, or 3 hours post-occlusion; 48 hours after MCAO
[4] = tested on: primary rat brain capillary endothelial cells (BCEC); assay: BCEC mortality under hypoglycemia (Trypan blue); format: cell-based; conditions: 2 nM; normal glucose 200 mg %
Experimental: Hypoglycemia experiments were undertaken. […] The glucose concentration of the culture media was then adjusted from 20 mg % to 200 mg % by adding appropriate amount of D-(+)-glucose to the glucose-free media and monitored by Glucose and L-Lactate Analyzer (YSI model 2300 STAT plus, YSI, Inc., Yellow Springs, Ohio). The hypoglycemic cultures were maintained for 24 hours or 48 hours prior to staining with Trypan blue. Cell mortality was counted using Trypan blue staining method. Cell death percentage was calculated as dead cell/alive cell×100%. Statistical methods used included two-way analysis of variance, applied to determine the significance of the difference among the experimental groups. Kruskal-Wallis nonparametric analysis was used for data presented as percentage. […] P<0.05 was considered significant.

[5] = Blood levels after single subcutaneous bolus injection in corn oil (radioimmunoassay); format: in vivo, male Sprague-Dawley rats; conditions: 100 μg/kg sc in corn oil
Experimental: The drug was dissolved in corn oil at 100 μg/ml and the final dosage delivered was 100 μg/kg. […] Venous blood was collected into heparinized tubes, centrifuged and the plasma was collected and frozen. Levels of 17β-estradiol were determined using a commercially supplied radioimmunoassay kit.

[6] = tested on: primary rat brain capillary endothelial cells (BCEC); assay: BCEC mortality under combined anoxia and hypoglycemia (Trypan blue); conditions: 2 nM; 100 mg % hypoglycemia and anoxia 2 hours
Experimental: Cell media contained 200 mg % or 100 mg % glucose. Culture dishes containing BCEC were placed in either an incubator or a nitrogen filled chamber for two hours. Trypan blue staining was used to distinguish live cells from dead cells. Two cell countings at two different hemacytometer squares were averaged. Mean±SEM are depicted (n=8.12). *<0.05 vs. corresponding vehicle control.
Nitrogen gas was influxed to replace the oxygen inside the chamber. The chamber was sealed and placed in the incubator for four hours for nonhypoglycemic cultures and 2 hours for hypoglycemic cultures.
Cell mortality was counted using Trypan blue staining method. Cell death percentage was calculated as dead cell/alive cell×100%.
Statistical methods used included two-way analysis of variance, applied to determine the significance of the difference among the experimental groups. Kruskal-Wallis nonparametric analysis was used for data presented as percentage. […] P<0.05 was considered significant.

| Structure (SMILES) | reduction of ischemic area vs sham ([1]; slice C) [%] | reduction of ischemic area vs sham ([1]; slice D) [%] | reduction of ischemic area vs sham ([1]; slice E) [%] | protective effect on ischemic area (in words) ([1]; tissue slices A-E, sustained subcutaneous delivery initiated 24 hours prior) | ischemic area, percent of cross-sectional area of brain sections evaluated ([1]; pretreatment 24 h prior to MCAO, 3 brain slices, sham 25.6±5.7%) [%] | protective effect on ischemic area (in words) ([1]; tissue slices A-D, subcutaneous injection two hours prior to ischemic event) | reduction of ischemic area [2] [%] | protection, ischemic lesion volume (in words) [3] | difference in % cell death with and without estrogen (in words) [4] | blood level ([5]; 30 minutes after administration (peak)) | blood level ([5]; 4 hours) | blood level (in words) ([5]; by 25 hours) | protection of BCEC (in words) [6] |
| --- | --- | --- | --- | --- | --- | --- | --- | --- | --- | --- | --- | --- | --- |
| C[C@]12CC[C@@H]3c4ccc(O)cc4CC[C@H]3[C@@H]1CC[C@H]2O [17α-estradiol] | 55 | 66 | 81 | significant protective effect; also recorded: smaller ischemic areas compared with the sham treated animals in all slices evaluated | – | – | – | – | – | – | – | – | – |
| C[C@]12CC[C@@H]3c4ccc(O)cc4CC[C@H]3[C@@H]1CC[C@@H]2O [17β-estradiol] | – | – | – | – | 9.8±4.0 | significant protective effect | 31 | significant protection | little difference | 4,610 pg/ml | 2,004 pg/ml | near zero | effective in protecting cultured BCEC |
